According to article PMC9301721 (ACS Omega, 2022):

B1: 14-3-3εΔC (aa 1-232) (domain or fragment, human, UniProt P62258 1-232, looked up)
chain: MDDREDLVYQAKLAEQAERYDEMVESMKKVAGMDVELTVEERNLLSVAYKNVIGARRASWRIISSIEQKEENKGGEDKLKMIREYRQMVETELKLICCDILDVLDKHLIPAANTGESKVFYYKMKGDYHRYLAEFATGNDRKEAAENSLVAYKAASDIAMTELPPTHPIRLGLALNFSVFYYEILNSPDRACRLAKAAFDDAIAELDTLSEESYKDSTLIMQLLRDNLTLWT

Columns and labels:
14-3-3ε = settings: pull-down and mass spectrometry; cited from earlier work
[1] = tested on: 14-3-3ε and FOXO3a interaction; settings: cells expressing the 9J10 probe; cited from earlier work
crystal structure = biological target: the molecule itself; experiment: crystal structure

Molecule | 14-3-3 proteins interacting with probe (pull-down, MS) (14-3-3ε) | Interaction between 14-3-3ε and FOXO3a in cells expressing the probe [1] | binding result (crystal structure)
LNTRPGRRRNpSN [9J10] | 14-3-3ε is one among the abundant 14-3-3 proteins interacting with 9J10 | sharp reduction in the interaction between 14-3-3ε and FOXO3a | –
B1 | – | – | binds
